Assay results taken from patent publication US9403791B1, “Coumarin derivatives for cancer therapy” (Wellesley College, priority 2013, dated 2016).

Columns and labels:
[1] = system: pancreatic cancer cell line PANC-1; conditions: within 24 hours; cited from earlier work
[2] = system: PANC-1 cells; experiment: In vitro cytotoxicity assay (WST-8 cell viability), nutrient rich media; type: cell-based
Experimental: (§1) PANC-1 cells, ranging from passage numbers 30-36 and 40-45, were seeded in 96-well plates at a density of 2.5×10^4 cells per well and incubated in fresh Dulbecco's modified Eagle's medium (DMEM, Sigma Aldrich) at 37° C. and 5% CO2 for 24 hours. Cells were then washed with PBS (Sigma Aldrich) and then subjected to the addition of either DMEM or nutrient deprived media (absence of glucose, amino acid and serum). Serially diluted coumarin compounds were added to the cells followed by a 24-hour incubation at 37° C. and 5% CO2. Cell morphology was then observed under an inverted microscope. Cells were then washed with PBS, and fresh DMEM and 10% WST-8 cell counting kit solution (Dojindo Molecular Technologies) were added to each well. The cells were incubated for 3-hours at 37° C. and 5% CO2. Absorbance values were measured using a plate reader at 450 nm, and cell viability was calculated using the following equation % Cell viability=[{Abstest sample−Absblank}/{Abscontrol−Absblank}]*100. The cell viability of compounds 2, 3 and 4 is seen in FIG. 1a.
The assay detailed above was performed additional times and results were obtained. Briefly, PANC-1 cells, ranging from passage numbers 30-36 and 40-45, were seeded in 96-well plates at a density of 2.5×10^4 cells per well density and incubated in fresh Dulbecco's modified Eagle's medium (DMEM, Sigma Aldrich) at 37° C., 5% CO2 for 24 hours. Cells were then washed with PBS (Sigma Aldrich) and then subjected to the addition of either nutrient rich media (NRM) or nutrient deprived media (NDM). […] Absorbance values were measured with a plate reader at 450 nm, and cell viability was calculated using the equation % Cell viability=[{Abstest sample−Absblank}/{Abscontrol−Absblank}]*100. The cell viability of compounds 2, 3 and 4 (e.g., viability of cells following treatment with compounds 2, 3, or 4 was assessed) is shown in FIG. 1b, and is consistent with the results shown in FIG. 1a. LC50 values were determined and are as follows.

[3] = system: PANC-1 cells; experiment: In vitro cytotoxicity assay (WST-8 cell viability), nutrient deprived media; type: cell-based; conditions: for CC50: Homo sapiens, PANC-1 cells, 24-hour incubation, WST-8 cell counting kit, nutrient deprived media (medium not restated at table), read-out: LC50 (the source's name)
Experimental: as §1
The assay detailed above was performed additional times and results were obtained. Briefly, PANC-1 cells, ranging from passage numbers 30-36 and 40-45, were seeded in 96-well plates at a density of 2.5×10^4 cells per well density and incubated in fresh Dulbecco's modified Eagle's medium (DMEM, Sigma Aldrich) at 37° C., 5% CO2 for 24 hours. Cells were then washed with PBS (Sigma Aldrich) and then subjected to the addition of either nutrient rich media (NRM) or nutrient deprived media (NDM). Serially diluted coumarin compounds (5.5% DMSO in NDM) were added to the cells followed by a 24-hour incubation at 37° C., 5% CO2. Cell morphology was then observed under an inverted microscope. Cells were then washed with PBS, and fresh DMEM and 10% WST-8 cell counting kit (Dojindo Molecular Technologies) were added for a 3-hour incubation at 37° C., 5% CO2. Absorbance values were measured with a plate reader at 450 nm, and cell viability was calculated using the equation % Cell viability=[{Abstest sample−Absblank}/{Abscontrol−Absblank}]*100. The cell viability of compounds 2, 3 and 4 (e.g., viability of cells following treatment with compounds 2, 3, or 4 was assessed) is shown in FIG. 1b, and is consistent with the results shown in FIG. 1a. LC50 values were determined and are as follows.

[4] = system: PANC-1 cells; experiment: Morphological change observation under inverted microscope, nutrient-deprived conditions; type: cell-based; conditions: 6.25 μM, 12.5 μM, and 25 μM, 24 hour incubation
Experimental: as §1, with “Cells were then washed with PBS, and fresh DMEM and 10% WST-8 cell counting kit solution (Dojindo Molecular Technologies) were added to each well. The cells were incubated for 3-hours at 37° C. and 5% CO2.” left out, “The cell viability of compounds 2, 3 and 4 is seen in FIG. 1a.” left out
The assay detailed above was performed additional times and results were obtained. […] Absorbance values were measured with a plate reader at 450 nm, and cell viability was calculated using the equation % Cell viability=[{Abstest sample−Absblank}/{Abscontrol−Absblank}]*100. The cell viability of compounds 2, 3 and 4 (e.g., viability of cells following treatment with compounds 2, 3, or 4 was assessed) is shown in FIG. 1b, and is consistent with the results shown in FIG. 1a. LC50 values were determined and are as follows.

SMILES	cytotoxicity against PANC-1 under nutrient starvation conditions [1]	cytotoxic activity when cells cultured under nutrient-rich conditions [2]	CC50 [3] [µM]	cytotoxicity towards PANC-1 cells under nutrient starvation conditions [3]	morphological changes to PANC-1 cells [4]
CC(C)(OC(=O)C=Cc1ccc(O)cc1)C1Cc2c(ccc3ccc(=O)oc23)O1 (centres unmarked) [Angelmarin, 11-O-(p-hydroxy-cinnamoyl) columbianetin]	exhibit cytotoxicity	–	–	–	–
CC(C)=CCC/C(C)=C/CC/C(C)=C/COc1ccc2oc(=O)ccc2c1 [Compound 4, 6-(((2E,6E)-3,7,11-trimethyldodeca-2,6,10-trien-1-yl)oxy)-2H-chromen-2-one]	–	no significant cytotoxic activity	4	preferential cytotoxicity	induced apoptosis-like morphological changes
CC(C)=CCOc1ccc2oc(=O)ccc2c1 [Compound 2, 6-((3-methylbut-2-en-1-yl)oxy)-2H-chromen-2-one]	–	no significant cytotoxic activity	> 100	preferential cytotoxicity	–
CC(C)=CCC/C(C)=C/COc1ccc2oc(=O)ccc2c1 [Compound 3, (E)-6-((3,7-dimethylocta-2,6-dien-1-yl)oxy)-2H-chromen-2-one]	–	no significant cytotoxic activity	12	preferential cytotoxicity	–
